In PMC9871843 (Clinical Kidney Journal, 2022):

Assay: Safety and tolerability
Assay type: in vivo, healthy participants (human)
Details: healthy adults, single oral dose
[1] = safety analysis set, by system organ class

Structure (SMILES): C=CC[C@@H]1/C=C(\C)C[C@H](C)C[C@H](OC)[C@H]2O[C@@](O)(C(=O)C(=O)N3CCCC[C@H]3C(=O)O[C@H](/C(C)=C/[C@@H]3CC[C@@H](O)[C@H](OC)C3)[C@H](C)[C@@H](O)CC1=O)[C@H](C)C[C@@H]2OC [Tacrolimus, tacrolimus]
- participants in whom adverse events were reported: seven
- Participants with any AE (safety analysis set, N as in column head): 7 (22.6) n (%)
- Participants with AEs: Cardiac disorders [1]: 0 n (%)
- Participants with AEs: Eye disorders [1]: 1 (3.2) n (%)
- Participants with AEs: Gastrointestinal disorders [1]: 2 (6.5) n (%)
- Participants with AEs: General disorders and administration site conditions [1]: 1 (3.2) n (%)
- Participants with AEs: Infections and infestations [1]: 0 n (%)
- Participants with AEs: Injury, poisoning and procedural complications [1]: 1 (3.2) n (%)
- Participants with AEs: Musculoskeletal and connective tissue disorders [1]: 1 (3.2) n (%)
- Participants with AEs: Nervous system disorders [1]: 3 (9.7) n (%)
- Participants with AEs: Renal and urinary disorders [1]: 0 n (%)
- Participants with AEs: Respiratory, thoracic and mediastinal disorders [1]: 0 n (%)
